Experiments:
Type in all cases: physicochemical
Details in all cases: unprocessed API vs. co-processed prodrug/HPMC batches from Example 1
Bulk density of powder = assay: Bulk density of powder
Tapped density of powder = assay: Tapped density of powder
Powder flow = assay: Powder flow

COc1cnc(-n2cnc(C)n2)c2c1c(C(=O)C(=O)N1CCN(C(=O)c3ccccc3)CC1)cn2COP(=O)(O)O [API, 1-benzoyl-4-[2-[4-methoxy-7-(3-methyl-1H-1,2,4-triazol-1-yl)-1-[(phosphonooxy)methyl]-1H-pyrrolo[2,3-c]pyridin-3-yl]-1,2-dioxoethyl]-piperazine]
Bulk Density (Bulk density of powder): 0.13 g/cc
Tapped Density (Tapped density of powder): 0.23 g/cc
Flow (Powder flow): incomplete
Volumetric Flow (Powder flow): incomplete

From patent US20160102093A1, “CO-PROCESSING METHOD AND FORMULATION FOR HIV ATTACHMENT INHIBITOR PRODRUG COMPOUND AND EXCIPIENTS” (BRISTOL-MYERS SQUIBB COMPANY, priority 2011, published 2016)
